In ChEMBL document CHEMBL4014297, “Discovery of small molecule inhibitors for the snake venom metalloprotease BaP1 using in silico and in vitro tests” (Bioorg Med Chem Lett, 2017):
The source made the active and inactive calls. The calls are words filed in the database; no cut-off is given here.

How the values were obtained:
[1] = target: T1, Snake venom metalloproteinase BaP1 (Bothrops asper) (UniProt P83512); assay: Binding affinity to Bothrops asper venom metalloprotease BaP1 by fluorescence spectroscopic method
T1 sequence (whole entry): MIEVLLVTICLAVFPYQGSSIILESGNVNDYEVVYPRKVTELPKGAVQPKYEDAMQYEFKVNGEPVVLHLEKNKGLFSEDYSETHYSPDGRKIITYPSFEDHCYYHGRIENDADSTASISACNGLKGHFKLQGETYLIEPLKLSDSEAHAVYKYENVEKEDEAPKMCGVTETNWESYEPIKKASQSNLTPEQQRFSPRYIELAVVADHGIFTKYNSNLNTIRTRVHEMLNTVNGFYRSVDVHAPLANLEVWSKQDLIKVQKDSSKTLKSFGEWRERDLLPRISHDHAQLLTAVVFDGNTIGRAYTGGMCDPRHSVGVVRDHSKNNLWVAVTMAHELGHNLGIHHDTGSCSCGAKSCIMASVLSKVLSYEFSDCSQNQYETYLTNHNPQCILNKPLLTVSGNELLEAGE

[2] = target: T1, Snake venom metalloproteinase BaP1 (Bothrops asper); assay: Inhibition of Bothrops asper venom metalloprotease BaP1 assessed as reduction in proteolytic activity at 100 umol/dm3 using azocasein as substrate measured after 90 mins by colorimetric method relative to control
[3] = target: T2, Snake venom metalloproteinase BaP1 (Bothrops asper, UniProt P83512); assay: Binding affinity to Bothrops asper venom metalloprotease BaP1 assessed as Stern-Volmer quenching constant by fluorescence spectroscopic method
T2 sequence (P83512 whole entry): T1 sequence (whole entry)

[4] = target: T1, Snake venom metalloproteinase BaP1 (Bothrops asper); assay: Binding affinity to Bothrops asper venom metalloprotease BaP1 assessed as red shift by fluorescence spectroscopic method
[5] = target: T2, Snake venom metalloproteinase BaP1; assay: Inhibition of Bothrops asper venom metalloprotease BaP1 assessed as reduction in proteolytic activity using azocasein as substrate measured after 90 mins by colorimetric method

## CC(C)c1ccc(OCC(=O)N/N=C2\C(=O)NC(=O)N=C2O)cc1
[1]
  Activity: Active
[2]
  inhibition: 95%
[3]
  Kd: 33.6 µM
[4]
  Activity: 7 nm
[5]
  IC50: 17 µM

## Cc1ccc(OCC(=O)N/N=C2\C(=O)NC(=O)N=C2O)cc1
[1]
  Activity: Active
[2]
  inhibition: 98%
[3]
  Kd: 37.1 µM
[4]
  Activity: 11 nm
[5]
  IC50: 20 µM
